These results are taken from ChEMBL document CHEMBL6153161, “Exploring Arylidene-Indolinone Ligands of Autophagy Proteins LC3B and GABARAP” (ACS Med Chem Lett, 2025).

A short description of test [1]: Binding affinity to GABARAP (unknown origin) assessed as dissociation constant by biolayer interferometry analysis. Details: species or system Homo sapiens.
The nature of test [2]: Inhibition of GABARAP (unknown origin) expressed in Escherichia coli BL21(DE3) incubated for 45 mins by AlphaScreen assay. Details: species or system Homo sapiens. For orientation: Alpha assays give light when donor and acceptor beads are brought close together.
Test [3] deals with T1, Microtubule-associated protein 1 light chain 3 beta (Homo sapiens, UniProt Q9GZQ8). Nature of the test: Inhibition of LC3B (unknown origin) expressed in Escherichia coli BL21(DE3) incubated for 45 mins by AlphaScreen assay.
Test [4] deals with T1, Microtubule-associated protein 1 light chain 3 beta. In words: Binding affinity against recombinant LC3B (unknown origin) assessed as dissociation constant by small molecule microarray with a scanning oblique-incidence reflectivity difference microscopic analysis.
For test [5] the target is unchanged. In words: Binding affinity against recombinant LC3B (unknown origin) assessed as dissociation constant by surface plasmon resonance assay. Background: Surface plasmon resonance follows binding to a sensor surface in real time, without labels.
Test [6] shares this target. Nature of the test: Binding affinity against recombinant LC3B (unknown origin) assessed as dissociation constant by 2D-NMR titration assay.
In a further test the test system is Bacteria. Nature of the test: Inhibition of beta-lactamase (unknown origin) at up to 25 uM incubated for 15 mins by beta-lactamase assay.

What is called Kd is a measure of binding affinity in units of concentration. One may read the IC50 as the midpoint of a concentration-inhibition curve. Higher therefore signals weaker potency in that assay. With `CC(C)C[C@H](NC(=O)[C@H](Cc1c[nH]cn1)NC(=O)[C@H](CCC(=O)O)NC(=O)[C@H](Cc1c[nH]c2ccccc12)NC(=O)[C@@H](NC(=O)[C@H](Cc1ccc(O)cc1)NC(=O)[C@@H](NC(=O)[C@H](C)NC(=O)[C@H](CC(=O)O)NC(=O)CCCC[C@@H]1SC[C@@H]2NC(=O)N[C@@H]21)[C@@H](C)O)[C@@H](C)O)C(=O)N[C@@H](C)C(=O)N[C@@H](Cc1c[nH]c2ccccc12)C(=O)N1CCC[C@H]1C(=O)O`, the Kd in test [1] stood at 0.055 µM. It took 0.055 µM to reach half-maximal inhibition in test [2] (IC50). As to `O=C1Nc2ccc(I)cc2/C1=C\c1cc(Br)cc(Br)c1`, the IC50 in test [2] is greater than 6.4 µM. Same read-out and setting: as for `O=C1Nc2ccc(Br)cc2/C1=C\c1cc(Br)c(O)c(Br)c1`, the figure is 13 µM. As to `O=C1Nc2ccc(I)cc2/C1=C\c1ccc(-c2ccc(C(F)(F)F)cc2)cc1`, the IC50 in test [3] and in test [2] was greater than 1 µM in each case. As for `COc1ccc(/C=C2/C(=O)Nc3ccc(I)cc32)cc1`, the IC50 in test [3] and in test [2] was greater than 11 µM each time. As for `O=C1Nc2ccc(I)cc2/C1=C\c1ccccc1`, in test [2], the half-maximal inhibitory concentration (IC50) is greater than 25 µM. For the compound `O=C1Nc2ccc(I)cc2/C1=C\c1cncs1`, the IC50 in test [3] and in test [2] was greater than 3.5 µM in each case. Regarding `O=C1Nc2ccc(I)cc2/C1=C\c1cccc2nccn12`, the IC50 in test [3] and in test [2] was greater than 12.5 µM each time. In the case of `O=C1Nc2ccc(I)cc2/C1=C\c1cc(Br)c(O)c(Br)c1`, the Kd is 0.468 µM in test [4], 8.9 µM in test [5] and greater than 200 µM in test [6]. In addition, the IC50 in test [3] amounted to 4.4 µM; in test [2] it was 9.1 µM. Further, the inhibition entry in the test on Bacteria is “No effect”. In test [2], `Cc1ncsc1/C=C1/C(=O)Nc2ccc(I)cc21` came in with a concentration for half-maximal inhibition (IC50) greater than 14 µM. Consider `O=C1Nc2ccccc2/C1=C\c1cc(Br)c(O)c(Br)c1`, for which the IC50 in test [3] was 176 µM; in test [2] it was 175 µM.

Turning to `O=C1Nc2ccc(I)cc2/C1=C\c1ccc(O)cc1`, the IC50 in test [3] and in test [2] was greater than 10 µM each time.

The compound `COC(=O)c1ccc2c(c1)NC(=O)/C2=C/c1cc(Br)c(O)c(Br)c1` came in with an IC50 in test [2] of 5.7 µM. The same measure, in the same setting: as for `O=C1Nc2cc(Cl)c(Cl)cc2/C1=C\c1cc(Br)c(O)c(Br)c1`, the figure is greater than 25 µM. Take `O=C1Nc2ccc(I)cc2/C1=C\c1cc(Br)cc(Br)c1O`: 15 µM corresponded to half-maximal inhibition in test [2] (IC50). Still for that read-out and setting: as for `O=C1Nc2ccc(I)cc2/C1=C\c1cnc[nH]1`, the figure is greater than 70 µM; as for `Cc1ccc2c(c1)NC(=O)/C2=C/c1cc(Br)c(O)c(Br)c1`, 24 µM. Take `O=C1Nc2ccc(I)cc2/C1=C\c1ccc[nH]1`: the IC50 in test [3] and in test [2] was greater than 1.8 µM each time. The compound `O=C1Nc2cc(I)ccc2/C1=C\c1cc(Br)c(O)c(Br)c1` displayed an IC50 in test [2] of 12 µM. Consider `O=C1Nc2ccc(I)cc2/C1=C\c1ccc(C(=O)O)cc1`, for which the figures for the IC50 in test [3] and in test [2] were 119 µM and 75 µM, respectively.
